These are literature values, as cited in patent US7973075B2, “Kainate receptor-selective epimeric analogs of dysiherbaine” (priority 2007, dated 2011).

One data set relates to mice. The note with it: i.c.v. injection, mice; Shoji et al., 2006; cited from earlier work.
The target of the next data set is T1, GluR5-2a (Rattus norvegicus, UniProt P22756, DEL402-416).
T1 construct: expressed in transfected cells; host or cells: HEK-293-T/17
To be noted: Sanders et al., 2005; cited from earlier work.

A further data set deals with T2, GluR5 (Rattus norvegicus, UniProt P22756).
T2 construct: expressed in transfected cells; HEK 293 (patch clamp)
To be noted: Tables 1-2; comparison values of neoDH and MSVIII-19 (Sanders et al., 2005); read-out: GluR5 binding affinity (displacement of [3H]kainate); cited from earlier work.

Data set [1] has as its target T3, KA2 (Rattus norvegicus, UniProt Q63273).
T3 construct: expressed in transfected cells; host or cells: HEK-293-T/17
T3 sequence (Q63273 15-979): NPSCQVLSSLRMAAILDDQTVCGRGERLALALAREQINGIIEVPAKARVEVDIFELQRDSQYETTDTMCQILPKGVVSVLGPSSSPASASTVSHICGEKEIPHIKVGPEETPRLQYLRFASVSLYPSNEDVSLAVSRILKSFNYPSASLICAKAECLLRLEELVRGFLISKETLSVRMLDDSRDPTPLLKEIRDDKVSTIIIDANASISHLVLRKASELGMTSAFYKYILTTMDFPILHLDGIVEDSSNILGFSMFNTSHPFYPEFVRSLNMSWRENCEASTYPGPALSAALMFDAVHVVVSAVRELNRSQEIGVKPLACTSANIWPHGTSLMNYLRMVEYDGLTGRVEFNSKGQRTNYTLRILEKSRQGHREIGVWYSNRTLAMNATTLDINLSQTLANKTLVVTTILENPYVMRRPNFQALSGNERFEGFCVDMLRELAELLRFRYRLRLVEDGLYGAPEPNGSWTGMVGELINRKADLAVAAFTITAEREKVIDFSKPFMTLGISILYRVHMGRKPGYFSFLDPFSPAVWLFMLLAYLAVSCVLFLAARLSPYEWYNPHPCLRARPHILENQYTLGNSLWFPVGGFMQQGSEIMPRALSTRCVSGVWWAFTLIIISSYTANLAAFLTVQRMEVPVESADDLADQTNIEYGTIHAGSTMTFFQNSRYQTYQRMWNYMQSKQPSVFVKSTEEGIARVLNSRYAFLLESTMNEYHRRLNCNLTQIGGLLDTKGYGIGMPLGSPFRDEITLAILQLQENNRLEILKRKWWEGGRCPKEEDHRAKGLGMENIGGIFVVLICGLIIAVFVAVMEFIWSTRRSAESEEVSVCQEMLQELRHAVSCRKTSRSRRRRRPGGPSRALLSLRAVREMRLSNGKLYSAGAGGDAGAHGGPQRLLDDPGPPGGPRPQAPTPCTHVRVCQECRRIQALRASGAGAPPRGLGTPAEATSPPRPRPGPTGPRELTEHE
The note with it: Tables 1-2; comparison values of neoDH and MSVIII-19 (Sanders et al., 2005); cited from earlier work.

In the next data set the target is T4, GluR6 (Rattus norvegicus, UniProt P42260).
T4 construct: expressed in transfected cells; HEK 293 (patch clamp)
The note with it: Tables 1-2; comparison value of neoDH (Sanders et al., 2005); read-out: GluR6 binding affinity (displacement of [3H]kainate); cited from earlier work.

Data set [2] deals with T3, KA2. The note with it: Sanders et al., 2005; cited from earlier work.

T4 sequence (P42260 32-908): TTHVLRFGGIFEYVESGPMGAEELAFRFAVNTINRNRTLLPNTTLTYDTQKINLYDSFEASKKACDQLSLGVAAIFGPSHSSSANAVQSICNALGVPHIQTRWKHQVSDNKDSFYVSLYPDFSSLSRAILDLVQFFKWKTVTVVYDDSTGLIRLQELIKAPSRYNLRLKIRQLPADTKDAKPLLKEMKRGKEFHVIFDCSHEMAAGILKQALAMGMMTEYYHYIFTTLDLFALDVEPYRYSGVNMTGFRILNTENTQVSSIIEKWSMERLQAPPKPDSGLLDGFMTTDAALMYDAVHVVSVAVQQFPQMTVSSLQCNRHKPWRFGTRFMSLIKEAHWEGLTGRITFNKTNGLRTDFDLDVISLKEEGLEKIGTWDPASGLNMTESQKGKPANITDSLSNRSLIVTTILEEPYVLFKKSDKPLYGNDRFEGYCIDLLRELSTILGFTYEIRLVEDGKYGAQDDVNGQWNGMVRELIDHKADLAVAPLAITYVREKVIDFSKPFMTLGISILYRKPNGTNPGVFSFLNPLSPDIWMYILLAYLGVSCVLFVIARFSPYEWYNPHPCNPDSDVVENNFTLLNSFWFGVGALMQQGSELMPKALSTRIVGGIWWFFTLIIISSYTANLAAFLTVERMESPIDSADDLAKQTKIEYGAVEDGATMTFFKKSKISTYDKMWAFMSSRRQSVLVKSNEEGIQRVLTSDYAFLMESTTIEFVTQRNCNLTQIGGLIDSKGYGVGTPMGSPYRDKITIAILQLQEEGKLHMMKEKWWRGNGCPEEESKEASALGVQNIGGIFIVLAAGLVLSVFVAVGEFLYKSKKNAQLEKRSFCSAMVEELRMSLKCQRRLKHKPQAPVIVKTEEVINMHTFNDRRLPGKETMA
T2 sequence (P22756 with tags, fused parts or gaps isoform P22756-2): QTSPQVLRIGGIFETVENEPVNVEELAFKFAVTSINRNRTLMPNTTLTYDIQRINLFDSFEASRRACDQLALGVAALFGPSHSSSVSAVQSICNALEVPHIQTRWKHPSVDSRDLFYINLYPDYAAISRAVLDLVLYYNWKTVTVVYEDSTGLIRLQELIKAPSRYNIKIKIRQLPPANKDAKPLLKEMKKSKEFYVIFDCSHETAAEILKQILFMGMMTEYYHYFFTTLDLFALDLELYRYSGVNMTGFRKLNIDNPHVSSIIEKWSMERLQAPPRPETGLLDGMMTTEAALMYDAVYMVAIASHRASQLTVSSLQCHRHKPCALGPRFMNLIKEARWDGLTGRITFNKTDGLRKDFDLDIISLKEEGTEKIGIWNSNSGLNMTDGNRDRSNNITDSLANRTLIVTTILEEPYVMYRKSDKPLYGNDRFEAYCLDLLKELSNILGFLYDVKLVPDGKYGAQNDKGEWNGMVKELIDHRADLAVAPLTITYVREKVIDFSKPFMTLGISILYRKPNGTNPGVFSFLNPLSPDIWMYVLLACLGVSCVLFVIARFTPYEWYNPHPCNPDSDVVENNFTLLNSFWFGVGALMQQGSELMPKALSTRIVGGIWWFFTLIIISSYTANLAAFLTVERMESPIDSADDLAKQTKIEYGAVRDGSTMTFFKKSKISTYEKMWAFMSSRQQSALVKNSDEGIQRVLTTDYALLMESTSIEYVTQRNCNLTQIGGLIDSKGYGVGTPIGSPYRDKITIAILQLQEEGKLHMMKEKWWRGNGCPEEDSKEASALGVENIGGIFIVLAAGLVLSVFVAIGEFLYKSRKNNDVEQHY
T1 sequence (P22756 with tags, fused parts or gaps isoform P22756-2 limits assumed, stated change not applied): as the sequence (P22756 with tags, fused parts or gaps isoform P22756-2) above

As for `CN[C@H]1[C@H]2O[C@@](C[C@H](N)C(=O)O)(C(=O)O)C[C@H]2OC[C@H]1O` [DH, Dysiherbaine], the ED50 seizure activity with mice is recorded as 13 pmol/mouse.
In the case of `N[C@@H](C[C@]1(C(=O)O)C[C@H]2OC[C@@H](O)[C@@H](O)[C@H]2O1)C(=O)O` [neodysiherbaine, Neodysiherbaine], the results for the Ki on GluR5-2a, on GluR5 and at GluR6 were 7.7 nM, 7.7 nM and 33 nM, respectively. For the same compound, the “KA2 binding affinity (displacement of [3H]kainate)” value at KA2 [1] was 0.6 µM. Also, in the data set with mice, the ED50 seizure activity is reported as 16 pmol/mouse. The “Ki KA2” value at KA2 [2] was 600 nM.
